Two compounds from patent publication US8952042B2, “FXR (NR1H4) binding and activity modulating compounds” (Phenex Pharmaceuticals AG, priority 2009, dated 2015) can be followed below.

Molecules are shown by their SMILES.

Series [1] is described as follows: UV photostability, irradiation at 254 nm, 1H NMR. Particulars: 70 h UV irradiation at 254 nm. In kind it is physicochemical. As for the experimental part:
The compounds of interest were dissolved using ethanol and their UV spectrum was analyzed to determine their λmax to establish an irradiation wavelength to be used in the study (see FIG. 2). The best wavelength for testing the UV stability of the —CH═CH— double bond was determined to be 254 nm. Further material of the compounds was then dissolved in deuterated ethanol and the ^1H NMRs (400 MHz) analyzed (T=0). Each sample was then recovered from the NMR tube and subjected to UV irradiation (254 nm) for 4 h, 15 h and 70 h. At the respective timepoints the individual samples were re-analyzed by ^1H NMR and the signal for the —CH═CH— protons evaluated to assess the percent of remaining intact double bond. Other changes in the chemical shift signals were also analyzed for further changes on the overall structure of the molecules.

The nature of series [2]: UV stability, irradiation at 366 nm on a DMSO thin film, LCMS. To be noted: 366 nm emission, 250 μM in DMSO thin film, FIG. 3m. In kind it is physicochemical. As for the experimental part: A different, more rapid experimental setup was used to investigate a broader set of compounds in comparison to GW4064. The substances were dissolved in reagent grade DMSO (99.5%, Karl Roth) at a concentration of 250 μM. DMSO solution was spread over a silica glass slide to a depth of approximately 2 mm and irradiated using a UV lamp set to 366 nm emission (Benda Instruments, Wiesloch Germany) using an 8 W tube set approximately 2.5 cm from the target materials. The solution was sampled prior to irradiation (T=0 min) and at various intervals thereafter. Stocks and samples were maintained in foil wrapped tubes out of direct light. Samples were injected (2 μL) directly onto a LCMS System for analysis without any further preparation.

`O=C(O)c1cccc(C2CC2c2ccc(OCc3c(-c4c(Cl)cccc4Cl)noc3C3CC3)cc2Cl)c1` (racemic) [Example 4, 3-(2-(2-chloro-4-((5-cyclopropyl-3-(2,6-dichlorophenyl)isoxazol-4-yl)methoxy)phenyl)-cyclopropyl)benzoic acid]: the “behaviour in 1H NMR spectrum after prolonged UV irradiation” value in series [1] is recorded as “inert”.

With `O=C(O)c1ccc(C2CC2c2ccc(OCc3c(-c4c(Cl)cccc4Cl)noc3C3CC3)cc2Cl)cc1` (racemic) [Example 12, 4-(2-(2-chloro-4-((5-cyclopropyl-3-(2,6-dichlorophenyl)isoxazol-4-yl)methoxy)phenyl)cyclopropyl)benzoic acid], the “photostability compared to GW4064” value in series [2] is given as “higher photostability”.
